The results in this text go back to patent publication US5155110A, “Fenamic acid hydroxamate derivatives having cyclooxygenase and 5-lipoxygenase inhibition” (Warner-Lambert Company, priority 1988, dated 1992).

Data set [1] addresses T1, 5-lipoxygenase (Rattus norvegicus, UniProt P12527).
T1 construct: host or cells: RBL-1 (rat basophilic leukemia)
T1 sequence (P12527 1-673): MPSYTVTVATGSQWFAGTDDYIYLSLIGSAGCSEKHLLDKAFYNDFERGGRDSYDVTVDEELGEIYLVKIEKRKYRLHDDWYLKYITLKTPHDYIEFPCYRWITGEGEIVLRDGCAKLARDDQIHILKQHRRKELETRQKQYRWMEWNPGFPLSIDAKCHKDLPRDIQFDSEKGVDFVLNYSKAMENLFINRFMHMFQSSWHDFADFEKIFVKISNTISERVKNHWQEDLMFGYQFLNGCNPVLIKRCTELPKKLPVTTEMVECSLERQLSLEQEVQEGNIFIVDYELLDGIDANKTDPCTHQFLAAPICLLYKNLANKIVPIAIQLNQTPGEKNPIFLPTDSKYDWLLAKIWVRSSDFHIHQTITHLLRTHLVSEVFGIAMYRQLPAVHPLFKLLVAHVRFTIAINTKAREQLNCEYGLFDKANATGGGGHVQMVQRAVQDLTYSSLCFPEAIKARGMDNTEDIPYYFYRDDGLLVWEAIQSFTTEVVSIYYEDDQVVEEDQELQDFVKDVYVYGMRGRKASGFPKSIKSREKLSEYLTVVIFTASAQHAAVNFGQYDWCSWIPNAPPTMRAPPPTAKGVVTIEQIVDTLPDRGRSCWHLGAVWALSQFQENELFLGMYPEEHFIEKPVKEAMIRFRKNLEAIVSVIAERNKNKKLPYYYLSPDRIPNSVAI
Nature of the data set: ARBL whole cell 5-lipoxygenase assay (LTB4 formation in RBL-1 cells). Format: cell-based. As to conditions: RBL-1 whole cells; for IC50: A23187 5 μM, read-out: ARBL IC50 for LTB4 inhibition. As for the experimental part:
(§1) ARBL/ARBC Whole Cell 5-Lipoxygenase and Cyclooxygenase Assays
(§2) The rat basophilic leukemia cell line (RBL-1) was obtained from the American Type Culture Collection (Rockville, Md.).
(§3) Radioimmuno assay (RIA) kits of LTB4 and PGF2.sbsb.α were obtained from Amersham (Arlington Heiqhts, Ill.) and Seragen (Boston, Mass.) respectively.
(§4) All tissue culture media were obtained from GIBCO (Grand Island, N.Y.).
(§5) RBL-1 cells are grown in suspension culture in Eagle's minimum essential medium supplemented with 12% fetal bovine serum at 37° C. in an incubator supplied with air-5% carbon dioxide. Cells are harvested by centrifugation. They are washed with cold phosphate buffered saline pH 7.4 (PBS; NaCl, […]; Na2 HPO4, 1.15 g; KH2 PO4, 0.2 g; and KCl, 0.2 g/l). Cells are finally suspended in PBS containing 1.0 mM calcium at a density of 2×10^6 cells/ml. Cells are incubated with and without test agent (in DMSO) (1% DMSO is without effect on arachidonic acid metabolism) for ten minutes at room temperature. Calcium ionophore A23187 (5 μM) is added and cells are incubated for seven minutes at 37° C. The reaction is stopped by chilling the tubes on ice for ten minutes. Cells are separated by centrifugation and the supernatant is stored at -20°. Aliquots (100 μl) are analyzed for LTB4 and PGF2.sbsb.α using radioimmuno assay kits as provided by the supplier.

The target of data set [2] is T2, cyclooxygenase (Rattus norvegicus, UniProt Q63921).
T2 construct: host or cells: RBL-1 (rat basophilic leukemia)
T2 sequence (Q63921 27-602): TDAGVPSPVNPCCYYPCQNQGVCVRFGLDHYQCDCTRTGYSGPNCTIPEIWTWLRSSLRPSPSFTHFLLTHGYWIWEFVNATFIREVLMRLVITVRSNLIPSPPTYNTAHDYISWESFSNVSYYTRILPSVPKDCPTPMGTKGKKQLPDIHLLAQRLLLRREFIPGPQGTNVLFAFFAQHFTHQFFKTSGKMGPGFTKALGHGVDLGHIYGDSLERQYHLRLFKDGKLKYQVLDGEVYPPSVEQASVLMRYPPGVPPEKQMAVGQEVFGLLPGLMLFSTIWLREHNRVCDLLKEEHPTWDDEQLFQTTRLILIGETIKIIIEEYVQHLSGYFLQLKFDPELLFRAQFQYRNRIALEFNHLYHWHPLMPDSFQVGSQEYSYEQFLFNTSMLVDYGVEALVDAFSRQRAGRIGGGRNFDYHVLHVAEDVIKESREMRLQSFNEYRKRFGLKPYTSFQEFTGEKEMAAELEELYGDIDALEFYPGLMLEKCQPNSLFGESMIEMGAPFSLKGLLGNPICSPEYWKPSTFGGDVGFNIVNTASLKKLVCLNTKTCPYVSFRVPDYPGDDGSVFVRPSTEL
Nature of the data set: ARBC whole cell cyclooxygenase assay (PGF2α formation in RBL-1 cells). Format: cell-based. As to conditions: RBL-1 whole cells; for IC50: A23187 5 μM, read-out: ARBC IC50 for PGF2α inhibition. The method, then:
as §1, §2, §3, §4
as §5, with “Cells are finally suspended in PBS containing 1.0 mM calcium at a density of 2×10^6 cells/ml. Cells are incubated with and without test agent (in DMSO) (1% DMSO is without effect on arachidonic acid metabolism) for ten minutes at room temperature.” left out

The test system of data set [3] is Mycobacterium-induced rat footpad edema. Nature of the data set: Mycobacterium-Induced Rat Footpad Edema Assay (MFE). Format: in vivo. Particulars: PO, one hour before Mycobacterium and Days 1 and 2, swelling at 72 hours, read-out: MFE ID40. The method, then:
Mycobacterium--Induced Rat Footpad Edema Assay (MFE): Protocol
Myobacterium butyricum (5 mg/ml) is suspended in paraffin oil by sonication for ten minutes in an ice bath. Footpad edema is induced on Day 0 by injecting 0.1 ml of the Mycobacterium mixture into the left hindpaw of lightly anesthetized rats. Swelling in the injected hindpaw is determined by mercury plethysmography 72 hours after injection. Groups of rats are treated with test compounds (suspended in 0.5% hydroxypropyl methylcellulose with 0.2% Tween-80) or vehicle one hour before Myobacterium injection and on Days 1 and 2. Inhibition of swelling is determined by comparing the change in hindpaw volume in compound- and vehicle-treated rats. […] (the dose at which swelling is inhibited by 40%) was calculated by probit analysis.

The test system of data set [4] is carrageenan-induced rat foot paw edema. Nature of the data set: Carrageenan-Induced Rat Foot Paw Edema (CFE-2). Format: in vivo. As to conditions: 5 h, read-out: CFE-2 ID25. As for the experimental part: Carrageenan-Induced Rat Foot Paw Edema2 (CFE2)
Carrageenan solution (1% w/v) is prepared by dissolving 100 mg carrageenan (Marine Colloidal Div., Springfield, N.J.) in 10 ml of sterile saline (0.9%) solution (Travenol). The solution is vortexed for 30 to 45 minutes. Animals are dosed with compound one hour before carrageenan challenge. Foot paw edema is induced by injecting 0.05 ml of the 1% carrageenan subcutaneously into the plantar portion of the right hind paw of each rat under light anesthesia. Initial foot paw volume is measured immediately following carrageenan challenge using mercury plethysmography (Buxco Electronics). Edema is measured five hours after carrageenan. The difference between the five-hour and the initial paw volume is expressed as delta edema. The delta edema for each test group of animals is used to calculate the percent inhibition of edema achieved by the compound at the test dose compared with the vehicle control group. The ID25 (the dose at which swelling is inhibited by 25%) was calculated by probit analysis for the dose at which a result of 25 percent inhibition occurs.

Data set [5] is described as follows: Gastric Ulcerogenicity (UD). Format: in vivo, rat. Particulars: rat, in vivo; fasted male Wistar rats, PO, six hours; read-out: UD50 (dose which produces a 50% occurrence of ulcers in rats). The method, then: (§6) Gastric Ulcerogenicity (UD)
(§7) Male outbred Wistar rats (100-250 gms) were fasted for 24 hours. After fasting, test compounds were administered orally (in 2 ml/kg of 0.5% hydroxypropyl methylcellulose) and the rats were denied access to food and water for six more hours. The rats were then sacrificed with CO2 so that the stomachs could be removed, opened along the greater curvature, and evaluated for the presence of gastric ulcers. Results are expressed as the percent of rats with gastric ulcers at a given dose.

Data set [6] relates to gastric ulcers in rats. Nature of the data set: Gastric Ulcerogenicity (UD). Type of data set: in vivo, rat. As to conditions: @ 200 mg/kg PO, fasted male Wistar rats, six hours. As for the experimental part: as §6, §7
The mark [7] stands for this setting: rat, PO, dosed one hour before carrageenan, edema at five hours.

Where two headings read alike, the source gives them in different places.

As a reminder, the IC50 is the concentration that inhibits the measured activity by half. As to `CONC(=O)c1ccccc1Nc1c(Cl)ccc(C)c1Cl` [Example 4, Ortho-2,6-dichloro-3-methylanilinobenzhydroxamic acid O-methyl ether], the IC50 in data set [1] was 16 µM.

Turning to `Cc1ccc(Cl)c(N2CN(O)C(=O)c3ccccc32)c1Cl` [Example 35, 1-(2,6-dichloro-3-methylphenyl)-2,3-dihydro-3-hydroxy-4(1H)-quinazolinone], the IC50 in data set [2] was 2.2 µM; in data set [1], 3.2 µM.

With `Cc1ccc(Cl)c(Nc2ccccc2C(=O)O)c1Cl` [Meclomen, reference compound], the 50% inhibitory concentration (IC50) in data set [1] was determined as 24 µM. In addition, the ED40 in data set [3] was found to be 0.39 mg/kg. Besides, the ED25 in data set [4] (Rattus norvegicus, po) is 8.2 mg/kg. In addition, in data set [5], the TD50 at 6 h was found to be 36 mg/kg.

For `Cc1ccc(Cl)c(Nc2ccccc2C(=O)N(C)O)c1Cl` [Example 3, 2-[(2,6-dichloro-3-methylphenyl)amino]-N-hydroxy-N-methylbenzamide], the IC50 in data set [1] came out at 1.5 µM. Moreover, the ED40 in data set [3] was found to be 24 mg/kg. The ED25 in data set [4] (setting [7]) turned out to be 1.3 mg/kg. The “UD: percent of rats with gastric ulcers” value in data set [6] is “N (N is 0% of rats have ulcers occurring at 200 mg.)”.

Regarding `Cc1ccc(Cl)c(Nc2ccccc2C(=O)NO)c1Cl` [Example 2, 2-[(2,6-dichloro-3-methylphenyl)amino]-N-hydroxybenzamide], the IC50 in data set [1] was 3.9 µM. In addition, the ED40 in data set [3] turned out to be 2.5 mg/kg. The ED25 in data set [4] (setting [7]) was 0.2 mg/kg. Also, the “UD: percent of rats with gastric ulcers” value in data set [6] is given as “N (N is 0% of rats have ulcers occurring at 200 mg.)”.

With `Cc1ccc(Cl)c(Nc2ccccc2C(=O)N(O)Cc2ccccc2)c1Cl` [Example 1, 2-[(2,6-Dichloro-3-methylphenyl)amino]-N-hydroxy-N-phenylmethylbenzamide], the ED40 in data set [3] came to 27 mg/kg. In addition, the “UD: percent of rats with gastric ulcers” value in data set [6] is given as “N (N is 0% of rats have ulcers occurring at 200 mg.)”.

As for `Cc1ccc(Cl)c(N2C(=O)C(=NO)c3ccccc32)c1Cl` [Example 49, 1-(2,6-Dichloro-3-methylphenyl)-lH-indole-2,3-dione-3-oxime], the IC50 in data set [2] amounted to 28 µM; in data set [1], 6.5 µM.

The term inhibition denotes the percentage by which the read-out fell short of the control. Consider `O=C(NO)c1ccccc1Nc1c(Cl)cccc1Cl` [Example 10, 2-[(2,6-dichlorophenyl)amino]-N-hydroxybenzamide], for which the inhibition at 16 µM in data set [2] (@ 16 μM) is 80%; in data set [1] (@ 16 μM), 88%.

The compound `Cc1cccc(Nc2ccccc2C(=O)NO)c1C` [Example 9, 2-[(2,3-dimethylphenyl)amino]-N-hydroxybenzamide] returned an inhibition at 0.5 µM in data set [2] (@ 0.5 μM) of 60%. In data set [1], the IC50 was found to be 1.8 µM.
